Experiments:
pERK = assay: Phosphoprotein kinetic profiles in bone marrow samples from healthy donors; format: cell-based, human; conditions: 100 μM U0126 pre-incubation; healthy donor CD34^+, CD117^+ cells
Experimental: (§1) Phosphoprotein kinetic profiles were analyzed in bone marrow aspiration samples from nine healthy, adult donors (i.e., normal bone marrow or NBM) and from five AML patients. Samples from healthy donors included 5 males and 4 females, ranging in age from 26 to 49 years. Approximately 10 to 20 mL of bone marrow (BM) samples were collected from the posterior iliac crest of the volunteers using IRB approved protocols. The BM samples were filtered using a 40 μm Nylon cell strainer to remove marrow particles and the white blood cell concentration determined using a blood analyzer. […] The samples were immediately used for subsequent experimentation.
(§2) To assess the signal transduction response after growth factor simulation, 100 to 200 μL of processed samples including about 2×10^6 WBC/100 μL were added to tubes and incubated at 37° C. for 30 minutes. For inhibition experiments, cells were incubated with 100 μM U0126, 1 μg/mL rapamycin, or both for at least 20 minutes prior to cytokine addition and in all cases for 30 min prior to formaldehyde addition. […] After stimulation the cells were immediately fixed by the addition of formaldehyde to a final concentration of 4% v/v and incubated for 10 minutes at room temperature. Following fixation, red blood cells were lysed by the addition of TRITON-X/PBS solution (0.1% v/v final concentration Triton X-100) supplemented with a 1 x phosphatase inhibitor cocktail (PIC; final concentrations: 0.2 mM sodium orthovanadate, 2 mM sodium pyrophosphate decahydrate, 2 mM [3-glycerophosphate, and 10 mM sodium fluoride) and incubation at 37° C. for 20 minutes. The incubated solution was chilled by the addition of ice-cold Wash Buffer (final concentration 1×PBS and either 4% bovine serum albumin (BSA) or 4% heat-inactivated fetal bovine serum (FBS), supplemented with 1×PIC), and the samples were centrifuged at 300 g for 6 minutes at 4° C.). If the lysis was incomplete, samples were retreated with 0.1% Triton X-100 at 37° C. for 10 to 20 minutes. After removal of the supernatant, cells were washed twice in ice-cold Wash Buffer supplemented with 1×PIC and permeabilized by the addition of pre-chilled 80% methanol while simultaneously vortexing the tube and incubated on ice for 10 minutes. Methanol was removed by centrifugation, the pellet was washed with ice-cold 1×PBS, and non-specific binding was blocked by the addition of ice-cold Wash Buffer supplemented with 1×PIC and incubation at 4° C. for a minimum of 30 minutes.
(§3) To stain cells with fluorescent conjugated monoclonal antibodies, the incubated solution was centrifuged to remove the supernatant and the pellet was incubated for 60 minutes at 4° C. with an antibody staining solution including 0.25 μg to 0.50 μg of pS6-Pacific Blue, pERK-ALEXA 488, pSTAT5-ALEXA 647, CD34-PE, CD45-PerCP, and CD117-PC7. Samples were washed three times with ice-cold Wash Buffer supplemented with 1×PIC, resuspended in 0.5 mL ice-cold Wash Buffer supplemented with 1×PIC including 0.5 μg/mL DAPI, and analyzed by flow cytometryusing a BD LSR II Flow Cytometer, equipped with a High Throughput Sampler (HTS).
(§4) First, doublets, aggregates, and debris were excluded by gating on single cell events in the SSC-Area versus SSC-Height histogram. Then, in events passing through this gate, debris near the origin of the FSC-Area versus SSC-Area plot (gray in FIG. 4A) was excluded by drawing a gate around an area encompassing, primarily, lymphocytes, monocytes, and granulocytes (LMG, black in FIG. 4A). Next, in cells passing through the LMG gate, the blast region (circle in FIG. 4B) was identified in the CD45 versus SSC-Area histogram (FIG. 4B). From this blast population, CD34+, CD117+ cells were identified in the CD34 versus CD117 plot (boxed area in FIG. 4C).

pS6 = assay: as above; format: cell-based, human; conditions: at 4 min; 100 μM U0126
Experimental: as §1, §2, §3, §4

N#CC(=C(/N)Sc1ccccc1N)/C(C#N)=C(\N)Sc1ccccc1N [U0126, reference compound]
Inhibition of SCF-stimulated ERK phosphorylation (pERK): completely inhibited
Inhibition of SCF-stimulated S6 phosphorylation (pS6): partially blocked

— patent publication US20130210034A1, “COMPLEX PHOSPHOPROTEIN ACTIVATION PROFILES” (BECKMAN COULTER, INC., priority 2005, published 2013)
